From PubChem BioAssay (NCI)
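All cell lines were grown in 96-well plates and treated with compound for 48 hours. Abbreviation: GI50, concentration required for 50% inhibition of growth. TGI marks complete inhibition of growth.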

Tests used:
Assay in all cases: growth of human tumour cells (NCI), 48 h
[1] = test system: HCT-116 colon
[2] = test system: A549 NSCLC
[3] = test system: HT29 colon
[4] = test system: ACHN renal
[5] = test system: HOP-62 NSCLC
[6] = test system: SF-295 CNS
[7] = test system: CAKI-1 renal
[8] = test system: HL-60(TB) leukemia
[9] = test system: NCI-H460 lung
[10] = test system: SK-OV-3 ovarian

Compound	TGI [1] [µM]	TGI [2] [µM]	TGI [3] [µM]	TGI [4] [µM]	TGI [5] [µM]	TGI [6] [µM]	TGI [7] [µM]	TGI [8] [µM]	TGI [9] [µM]	TGI [10] [µM]	GI50 [2] [µM]	GI50 [9] [µM]	GI50 [10] [µM]	GI50 [3] [µM]	GI50 [4] [µM]	GI50 [5] [µM]	GI50 [6] [µM]	GI50 [7] [µM]	GI50 [8] [µM]
OC(CC1CCCCN1)c1ccc2c(c1)oc1ccccc12 (configuration not stated)	> 100	> 100	> 100	> 100	> 100	> 100	> 100	> 100	> 100	> 100									
CN(C)CCNC(=O)c1cccc2c(=O)c3ccccc3oc12	> 100	> 100	98.7		97.5	98.9		> 90.6	> 79.5	> 100									
Cc1n(CC(C)C)c2c([n+]1C)C(=O)c1ccccc1C2=O	0.23	1.34	1.03	3.53	0.76	1.65	> 21.7	0.437	1.26	2.2									
CCOP(=Nc1ccc(N(C)C)cc1)(OCC)OCC	> 100	> 100		> 100	> 100	> 100	> 100		> 100	> 100									
CCC1C[N+]23CCc4c([nH]c5ccccc45)C2CC1CC3 (configuration not stated)	> 100		> 100	> 100	> 100	> 100	> 100		> 100	> 100									
CN(C)/C=C/C(=CC=[N+](C)C)/C=C/N(C)C	> 100	> 100	> 100	> 100	> 100	> 100	> 100	> 100	> 100	> 100									
CC(=O)C(C(c1ccccc1)N1CCOCC1)N1CCOCC1 (configuration not stated)	> 100	> 100	> 100	> 100	> 100	> 100	> 100	> 100	36.3	> 100									
Cc1ccc(S(=O)(=O)Nc2cccc3c(=O)[nH]cnc23)cc1	> 100	> 100	> 100	> 100	> 100	> 100	> 100	> 100	> 100	> 100									
CC1=C2C(O)C(C(C)C(=O)N(C)C)CCC2(C)C=CC1=O (configuration not stated)	> 100	> 100	> 100		> 100	> 100	> 100	> 100	> 100	> 100									
O=C1C=C(C2OC(CO)C(O)C2O)C(=O)N1 (configuration not stated)	> 100	> 100	> 100		> 100	> 100		> 100	> 100	> 100									
COc1cc2c(cc1O)c(O)cc1c3cc(OC)c(OC)cc3c[n+](C)c21	> 100	> 100	> 61.4	> 100	> 100	> 100	> 100		> 100	> 100									
COC1OC(CS(=O)(=O)O)C(O)C(O)C1O (configuration not stated)	> 100		> 100		> 100	> 100	> 100	> 100	> 100	> 100									
O=C(c1ccccc1)c1ccc2n[se]nc2c1		> 100	> 100	> 100		37	> 100	25.9		> 100									
Cc1ccc2c(ccc(/C=C/c3ccc(O)c4ncccc34)[n+]2C)c1	24.3	44.1	27.7	33.1	32.9	34.9	33.3	> 100	30.3	34.3									
CCOC(=O)Nc1cc2c(c(N)n1)N=C(c1ccc(OC)cc1)CN2	1.31	2.34	0.321	35.7	1.49			0.00595	0.256	18.7	0.0204	0.012	0.0475						
CCCC(C)c1ccc(OCCCCCCN2CCNCC2)cc1 (configuration not stated)		4.34	3.74	5.32	24.1	3.44	4.45	3.54	3.39	7.12	1.9	1.65	2.57	1.66	2.23	4.55	1.82	1.99	1.75
N#C[S-].[La+3].c1cnc2c(c1)ccc1cccnc12.c1cnc2c(c1)ccc1cccnc12.c1cnc2c(c1)ccc1cccnc12	10.2	10.6	18	12.9		7.94	12.7	2.47		14.1									
